Results published in patent US10098899B2, “Drug with activity against the herpes virus family” (priority 2010, dated 2018).

What was measured:
[1] = test system: type I herpes simplex virus (strain EC); assay: Herpetic pneumonia in white mice: virus titer in lungs (titration on Vero cells); format: in vivo, white non-pedigree mice; conditions: for Virus titer in lungs of mice on day 3 after the infection: day 3 after infection, 50 mg/kg intragastrically, 24 h and 1 h prior to and 24 h and 48 h after infection
Method: Antiviral activity of the inventive substance was determined using the model of pneumonia in white mice caused by type I herpes simplex virus.
Herpes simplex virus of type I (strain EC) was accumulated in Vero cells cultured in MEM medium with the addition of 0.2% bovine serum, 50 μg/ml of gentamicin. Virus titration was performed on Vero cells cultured in 96-well plates. Results were recorded after a pronounced cytopathic effect (CPE) appeared in virus control. The degree of intactness of the cellular monolayer was assessed visually, virus titer was calculated as the reciprocal value of Briggs logarithm of the largest dilution of the source material that is still able to produce visually notable manifestations of CPE in the cell culture (CTD50).
For assessing the virus inhibiting action of the preparations, white non-pedigree mice weighing 12-15 g (“Rappolovo” farm, Leningrad Region) were infected intranasally under a light ether anaesthesia with the herpes simplex virus in the dosage of 106 (CTD50)/0.05 ml. The preparation under study was administered intragastrically in the dosage of 50 mg/kg of weight according to a medical-preventive scheme (24 h and 1 h prior to infection, and 24 h and 48 h after the animals were infected). On day 3 the lungs of the infected animals were removed, homogenized in the presence of 10-fold volume of phosphate buffer and then 10-fold dilutions from 10-1 to 10-6 were prepared thereof. Dilutions of the lungs homogenate were used for infecting the intact culture of Vero cells and for titration of virus progeny. Positive reference was represented by lungs of mice that instead of the studied preparation received physiological solution by intragastric administration, whereas negative reference was represented by lungs of mice that received aciclovir in the dosage of 50 mg/kg of weight according to the same scheme. Each experimental group consisted of 10 animals.

Herpes virus of type I = assay: Antiviral activity in Vero cells, unaltered cells, herpes virus of type I; format: cell-based; conditions: 50 mg/1 of preparation; for Number of unaltered cells: non-infected reference 10000
Method: (§1) Determining Activity Against Herpes Viruses of Type 1 and 11.
(§2) Herpes simplex virus (strain EC) was grown in Vero cells cultured in MEM medium with the addition of 0.2% bovine serum and 50 mg/1 of the preparations under study.

Herpes virus of type II = assay: Antiviral activity in Vero cells, unaltered cells, herpes virus of type II; format: cell-based; conditions: for Number (%) of unaltered cells, percent / Number of unaltered cells: Herpes virus of type II, Vero cells, 50 mg/1 of preparation; for Number of unaltered cells: non-infected reference 10000
Method: as §1, §2

[2] = test system: type I herpes simplex virus (strain EC); assay: Herpetic pneumonia in white mice: histologic (morphometric) examination of lungs; format: in vivo, white non-pedigree mice

Compound	virus-inhibitory activity at the model of herpetic pneumonia in vivo (in words) ([1]; compared with aciclovir at the same dosage)	Virus titer in lungs of mice on day 3 after the infection [1] [Lg CTD50]	Number (%) of unaltered cells, percent (Herpes virus of type I)	Number of unaltered cells (Herpes virus of type I)	Number (%) of unaltered cells, percent (Herpes virus of type II)	Number of unaltered cells (Herpes virus of type II)	antiviral activity compared with aciclovir (in words) (Herpes virus of type II; in particular against the herpes virus of type II)	Area of an inflammation focus in section ([2]; term 2 days)	Number of inflammation foci in one animal ([2]; term 2 days)	Area of an inflammation focus in section ([2]; term 4 days)	Number of inflammation foci in one animal ([2]; term 4 days)	Area of an inflammation focus in section ([2]; term 6 days)	Number of inflammation foci in one animal ([2]; term 6 days)
(2,6-dichlorophenyl)amide salt of carbopentoxysulfanilic acid [The inventive substance]	statistically significant virus-inhibitory activity	1.0 ± 0.11	(80%)	8000	(90%)	9000	significantly exceeds that of the aciclovir	47 ± 7.3	3	49 ± 12.1	2	14 ± 5.5	1
Nc1nc2c(ncn2COCCO)c(=O)[nH]1 [Aciclovir, 2-amino-1,9-dihydro-9-[(2-hydroxyethoxy)methyl]-6H-purine-6-on, reference compound]		1.4 ± 0.34	(65%)	7000	(70%)	7000		55 ± 9.4	8	58 ± 14.7	3	24 ± 6.4	3
